# Experimental data as given in patent publication US9205091B2, “Diazeniumdiolated compounds, pharmaceutical compositions, and method of treating cancer” (The United States of America, as represented by the …, priority 2009, dated 2015).
# What was measured:
# [1] = Rate of reaction with 4 mM glutathione (stability study, HPLC); assay type: physicochemical; conditions: for t½ (min) Mean (SE): 4 mM glutathione (GSH), aqueous pH 7.4 phosphate buffered saline, 37° C.; for half-life upon treatment with glutathione (GSH): in comparison with that of JS-K
# Method: 490 μL of 2.25% Pluronic P123 in PBS is aliquoted into glass HPLC vials and maintained at 50° C. To this solution, 10 μL of 50 mM of compounds 6, 7, 9, and 11 in DMSO is added and maintained at 50° C. for 10 min. A glutathione stock solution (40 mM) is prepared in 0.1 M phosphate buffer pH 7.4. To 800 μL of 0.1 M phosphate buffer in a glass HPLC vial, 100 μL of glutathione stock solution and 100 μL of formulated prodrug are added. The disappearance of the compound is monitored using an Agilent 1100 series HPLC fitted with a C-18 reverse phase column (Phenomenex Luna 250×4.60 mm) operating at 300 nm and run isocratically with acetonitrile:water (75:25).
# H1703 cells = assay: H1703 xenograft in athymic NCr-nu/nu mice, tumor weights (Example 10); assay type: in vivo; conditions: 8 micromols/kg i.v., three times a week for three weeks
# Method: H1703 cells are harvested at 80% confluence, washed with PBS, and suspended in PBS. The cells are injected at 5×10^6 s.c. into a flank of 7-week-old female athymic NCr-nu/nu mice (Charles River). […] Animals are treated three times a week for three weeks with i.v. tail vein injections of either vehicle (2.25% P-123 in PBS) or 1 or 2 (6 micromols/kg in the vehicle) or 6 (8 micromols/kg). Body weights are taken before each drug injection. Animals are sacrificed two hours after the last drug injection and the tumors are excised and weighed. There are 13-15 mice/group at termination. The non-parametric Mann-Whitney test is utilized for statistical comparisons of tumor weights.
# H1703 = assay: CellTiter 96 MTT cell proliferation assay (Example 9); assay type: cell-based, human
# Method: (§1) Cell lines derived from human non-small cell lung cancers are obtained from American Type Culture Collection (ATCC, Manassas, Va.), and are designated by their NCI numbers. Cells are maintained in RPMI 1640 medium (Gibco, Invitrogen, Carlsbad, Calif.), supplemented with 10% fetal calf serum (Gemini Bio-Products, Sacramento, Calif.), 100 U/mL penicillin/streptomycin, and 2 mM glutamine at 37° C. and 5% CO2.
# (§2) For proliferation assays cells are seeded at 2×10^4/well in 96-well plates, allowed to adhere for 24 hrs, and then are treated with the drug or DMSO as a control for 48 hours. […] Compounds are prepared as 10 mM stock solution in dimethyl sulfoxide (Sigma, St. Louis, Mo.). Increasing drug concentrations in 10 μL of phosphate-buffered saline (PBS) are added to 100 μL of the culture medium and incubated at 37° C. for 72 h. The CellTiter 96 non-radioactive cell proliferation assay (MTT assay, Promega, Madison, Wis.), is performed according to the manufacturer's protocol. Each compound concentration is represented in six repeats, and the screening is performed as at least two independent experiments. IC50 values are calculated using Sigma Plot software (Systat Software).
# H1373 = assay: as above; assay type: cell-based, human
# Method: as §1, §2
# H441 = assay: as above; assay type: cell-based, human
# Method: as §1, §2
# H2122 = assay: as above; assay type: cell-based, human
# Method: as §1, §2
# H1944 = assay: as above; assay type: cell-based, human
# Method: as §1, §2
# SAPK/JNK and p38 = assay: Tiron pre-treatment before JS-36-25, stress kinase phosphorylation; assay type: cell-based, human; conditions: 10 mM Tiron 1 hour, then 30 minutes 1 μM JS-36-25
# Method: Immunoblotting: For protein immunoblotting the cells are harvested in lysis buffer (25 mM Hepes buffer containing 150 mM NaCl, 10 mM MgCl2, 1% Nonidet P40, 0.25% sodium deoxycholate, 10% glycerol, 2.5 mM EDTA, supplemented with Complete proteinase inhibitors cocktail (Behringer). Cell extracts are resolved by SDS-polyacrylamide gel electrophoresis (4-12% Bis-Tris gels or 3-8% Tris-acetate gels, Invitrogen Life Technologies, Carlsbad, Calif.) then immunoblotted to PVDF membrane (Invitrogen). Antibodies to phospho-ATM, Phospho-ATR, cleaved caspases 3 and 7, phospho-SAPK/JNK and SAPK/JNK, phospho-ATF2, phospho-p38 and p38, phospho-c-jun and c-jun, and PARP are purchased from Cell Signaling Technology (Danvers, Mass.). Anti-ATF3 polyclonal antibodies are from Santa Cruz Biotechnology (Santa Cruz, Calif.). […] The cells are pre-treated for 1 hour with 10 mM Tiron, followed by 30 minutes incubation with 1 μM of JS-36-25. In the Tiron-treated cells phosphorylation of both SAPK/JNK and p38 by JS-36-25 is diminished in comparison with JS-36-25-only treated cells (FIG. 3C).
# H1703 cell line = assay: Tiron protection against JS-K toxicity; assay type: cell-based, human
# [2] = tested on: lung adenocarcinoma cells (cell line H441); assay: Proliferation of lung adenocarcinoma cells, JS-59-4 with olaparib (FIG. 2); assay type: cell-based, human; conditions: combination with the PARP inhibitor olaparib, in comparison to JS-59-4 alone
# Method: FIG. 2 is a bar graph showing a synergistic effect of the administration of JS-59-4 with the PARP inhibitor olaparib in the inhibition of proliferation of lung adenocarcinoma cells (cell line H441). The white bar represents the control (i.e., no treatment). The light gray bar represents the administration of JS-59-4 alone (0.75 μM). The dark gray bar represents the administration of JS-59-4 alone (1 μM). The diagonally hatched bar represents the administration of olaparib alone (5 μM). The cross hatched bar represents the administration of olaparib alone (10 μM). The light gray diagonally gray bar represents the co-administration of JS-59-4 (0.75 μM) and olaparib (5 μM). The dark gray diagonally hatched bar represents the co-administration of JS-59-4 (1 μM) and olaparib (5 μM). The light gray cross hatched gray bar represents the co-administration of JS-59-4 (0.75 μM) and olaparib (10 μM). The dark gray cross hatched bar represents the co-administration of JS-59-4 (1 μM) and olaparib (10 μM).
SMILES,t½ (min) Mean (SE) [1],IC50 (H1703) [µM],IC50 (H1373) [µM],IC50 (H441) [µM],IC50 (H2122) [µM],IC50 (H1944) [µM],SAPK/JNK and p38 phosphorylation by JS-36-25 (SAPK/JNK and p38),half-life upon treatment with glutathione (GSH) [1],H1703 tumor growth in vivo (H1703 cells),effect on JS-K toxicity (H1703 cell line),antiproliferative activity of the combination [2]
"CCOC(=O)N1CCN(/[N+]([O-])=N/Oc2cc(C)c([N+](=O)[O-])cc2[N+](=O)[O-])CC1 [Compound 6, O^2-(2,4-dinitrophenyl-5-methyl) 1-[(4-ethoxycarbonyl)piperazin-1-yl]diazen-1-ium-1,2-diolate]",71.5 (4.3) min,0.97,1.86,1.61,7,> 10,,,did not result in reduction,,
"CCOC(=O)N1CCN(/[N+]([O-])=N/Oc2cc(OC)c([N+](=O)[O-])cc2[N+](=O)[O-])CC1 [Compound 9, O^2-(2,4-dinitrophenyl-5-methoxy) 1-[(4-ethoxycarbonyl)piperazin-1-yl]diazen-1-ium-1,2-diolate]",38.6 (2.8) min,1.57,2.1,2.5,5.78,> 10,,,,,
"CCOC(=O)N1CCCN(/[N+]([O-])=N/Oc2cc(OC)c([N+](=O)[O-])cc2[N+](=O)[O-])CC1 [Compound 11, O^2-(2,4-dinitrophenyl-5-methoxy) 1-[(4-ethoxycarbonyl)homopiperazin-1-yl]diazen-1-ium-1,2-diolate]",59.6 (4.2) min,1.82,3.08,3.15,10,> 10,,,,,
CCOC(=O)N1CCN(/[N+]([O-])=N/Oc2ccc([N+](=O)[O-])cc2C#N)CC1 [JS-59-4],,,,,,,,prolonged half-life,,,significantly enhanced antiproliferative activity
"CCOC(=O)N1CCCN(/[N+]([O-])=N/Oc2cc(C)c([N+](=O)[O-])cc2[N+](=O)[O-])CC1 [Compound 7, O^2-(2,4-dinitrophenyl-5-methyl) 1-[(4-ethoxycarbonyl)homopiperazin-1-yl]diazen-1-ium-1,2-diolate]",25.7 (1.0) min,1.66,3,2.02,10,> 10,,,,,

# Further lines, with some results ahead:
t½ (min) Mean (SE) [1],IC50 (H1703) [µM],IC50 (H1373) [µM],IC50 (H441) [µM],IC50 (H2122) [µM],IC50 (H1944) [µM],SAPK/JNK and p38 phosphorylation by JS-36-25 (SAPK/JNK and p38),half-life upon treatment with glutathione (GSH) [1],SMILES,H1703 tumor growth in vivo (H1703 cells),effect on JS-K toxicity (H1703 cell line),antiproliferative activity of the combination [2]
,,,,,,significantly reduces,,O=S(=O)(O)c1cc(O)c(O)c(S(=O)(=O)O)c1 [Tiron],,protective effect,
,,,,,,,prolonged half-life,CCOC(=O)N1CCN(/[N+]([O-])=N/Oc2ccc(C#N)cc2[N+](=O)[O-])CC1 [JS-59-131],,,
